# Assay results as given in US20250304574A1, “3,4,6,7-TETRAHYDRO-2,7-NAPHTHYRIDINE-2(1H)-CARBOXAMIDE DERIVATIVES AS GPR65 INHIBITORS FOR THE TREATMENT OF CANCER AND AUTOIMMUNE DISEASES” (Pathios Therapeutics Limited, priority 2022, published 2025).
# Target: human recombinant GPR65 (Homo sapiens, UniProt Q8IYL9)
# Assay: Human GPR65 cAMP HTRF antagonist assay
# Type: cell-based
# Conditions: 1321N1 cells stably expressing human recombinant GPR65, assay pH 7.2, read-out: hGPR65 IC50
# Procedure: Human GPR65 Cyclic Adenosine Monophosphate (cAMP) Homogeneous Time Resolved Fluorescence (HTRF) Antagonist Assay Procedure
# IC50 data was obtained by the following procedure:
# 1321N1 human astrocytoma cells stably expressing human recombinant GPR65 (1321N1-hrGPR65 cells, EuroscreenFast) were cultured according to the vendor's instructions.
# Compounds were tested for their ability to antagonise GPR65, through measuring the concentration of cytoplasmic cAMP following treatment of the cells at a pH of 7.2 to activate GPR65 signalling and addition of the compound to be tested. The extent to which the expected rise in cAMP concentration upon GPR65 activation was suppressed by the added compound is indicative of its potency. The assay was carried out according to EuroscreenFast assay Methodology as follows.
# On the day of the assay, test compounds were added to 384-well, low volume, white microtiter plates by acoustic dispensing. KRH buffer (5 mM KCl, 1.25 mM MgSO4, 124 mM NaCl, 25 mM HEPES, 13.3 mM Glucose, 1.25 mM KH2PO4 and 1.45 mM CaCl2) was adjusted to pH 6.5, pH 7.6 and pH 8.4 by adding NaOH. 1321N1-hGPR65 cells were rapidly thawed and diluted in KRH, pH 7.6 prior to centrifugation at 300×g for 5 min and resuspension in assay buffer (KRH, pH 7.6, supplemented with 1 mM 3-isobutyl-1-methylxanthine (IBMX) and 200 μM ethylenediaminetetraacetic acid (EDTA)). Cells were added to assay plates at a density of 2,000 cells per well in a volume of 5 μl. Assay plates were briefly centrifuged at 100×g and then incubated at room temperature for 30 min. Cells were stimulated by the addition of 5 μL KRH, pH 6.5, to achieve an assay pH of 7.2, while control wells received 5 μl KRH, pH 8.4 to achieve an assay pH of 7.9. Assay plates were briefly centrifuged at 100×g and then incubated at room temperature for 30 min.
# Accumulation of cAMP was detected by cAMP HTRF kit (Cisbio). d2-labeled cAMP and cryptate-labeled anti-cAMP antibody in Lysis and Detection Buffer (Cisbio) were added to assay plates, and the plates were incubated at room temperature for 1 h. HTRF measurements were performed using a Pherastar FSX instrument. Acceptor and donor emission signals were measured at 665 nm and 620 nm, respectively, and HTRF ratios were calculated as signal665 nm/signal620nm×10^4. Data were normalised to high and low control values and fitted with 4-parameter logistic regression to determine hGPR65 IC50 values for the test compounds, which are shown in Table 1.
# human recombinant GPR65, sequence (Q8IYL9 whole entry): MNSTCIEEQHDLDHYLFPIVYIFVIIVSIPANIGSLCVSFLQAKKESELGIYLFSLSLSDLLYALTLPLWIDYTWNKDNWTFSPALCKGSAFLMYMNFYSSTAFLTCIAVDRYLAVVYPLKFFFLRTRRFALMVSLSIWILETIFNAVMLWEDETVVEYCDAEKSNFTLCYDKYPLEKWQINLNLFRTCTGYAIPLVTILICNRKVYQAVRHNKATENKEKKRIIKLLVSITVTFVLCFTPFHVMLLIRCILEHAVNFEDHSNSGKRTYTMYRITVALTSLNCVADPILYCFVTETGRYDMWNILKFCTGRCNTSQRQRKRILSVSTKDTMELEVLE
row,SMILES,IC50
1,"CC1CN(C(=O)Nc2cc(Cl)c(C(F)(F)F)cc2F)Cc2c[nH]c(=O)cc21 (racemic) [Compound 21, (±)-N-(5-chloro-2-fluoro-4-(trifluoromethyl)phenyl)-4-methyl-6-oxo-3,4,6,7-tetrahydro-2,7-naphthyridine-2(1H)-carboxamide]",< 500 nM
2,"C[C@@H]1CN(C(=O)Nc2cc(Cl)c(C(F)(F)F)cc2F)Cc2c[nH]c(=O)cc21 (single isomer, unassigned; isomer 1) [Compound 25, N-(5-chloro-2-fluoro-4-(trifluoromethyl)phenyl)-4-methyl-6-oxo-3,4,6,7-tetrahydro-2,7-naphthyridine-2(1H)-carboxamide isomer 1]",< 500 nM
3,"C[C@@H]1CN(C(=O)Nc2cc(Cl)c(C(F)(F)F)cc2F)Cc2ccnc(F)c21 (single isomer, unassigned; isomer 1) [Compound 28, N-(5-chloro-2-fluoro-4-(trifluoromethyl)phenyl)-5-fluoro-4-methyl-3,4-dihydro-2,6-naphthyridine-2(1H)-carboxamide isomer 1]",< 500 nM
4,"C[C@H]1CN(C(=O)Nc2cc(Cl)c(C(F)(F)F)cc2F)Cc2c[nH]c(=O)cc21 (single isomer, unassigned; isomer 2) [Compound 26, N-(5-chloro-2-fluoro-4-(trifluoromethyl)phenyl)-4-methyl-6-oxo-3,4,6,7-tetrahydro-2,7-naphthyridine-2(1H)-carboxamide isomer 2]",< 500 nM
5,"C[C@H]1CN(C(=O)Nc2cc(Cl)c(C(F)(F)F)cc2F)Cc2ccnc(F)c21 (single isomer, unassigned; isomer 2) [Compound 29, N-(5-chloro-2-fluoro-4-(trifluoromethyl)phenyl)-5-fluoro-4-methyl-3,4-dihydro-2,6-naphthyridine-2(1H)-carboxamide isomer 2]",< 500 nM
6,"O=C(Nc1cc(Br)c(C(F)(F)F)cc1F)N1CCc2cc(=O)[nH]cc2C1 [Compound 1, N-(5-bromo-2-fluoro-4-(trifluoromethyl)phenyl)-6-oxo-3,4,6,7-tetrahydro-2,7-naphthyridine-2(1H)-carboxamide]",< 500 nM
7,"O=C(Nc1cc(Cl)c(C(F)(F)F)cc1F)N1CCc2cc(=O)[nH]cc2C1 [Compound 2, N-(5-Chloro-2-fluoro-4-(trifluoromethyl)phenyl)-6-oxo-3,4,6,7-tetrahydro-2,7-naphthyridine-2(1H)-carboxamide]",< 500 nM
8,"O=C(Nc1cc(Cl)c(Br)cc1F)N1CCc2cc(=O)[nH]cc2C1 [Compound 3, N-(4-Bromo-5-chloro-2-fluorophenyl)-6-oxo-3,4,6,7-tetrahydro-2,7-naphthyridine-2(1H)-carboxamide]",< 500 nM
9,"O=C(Nc1cc(C(F)(F)F)on1)N1CCc2cc(=O)[nH]cc2C1 [Compound 4, 6-Oxo-N-(5-(trifluoromethyl)isoxazol-3-yl)-3,4,6,7-tetrahydro-2,7-naphthyridine-2(1H)-carboxamide]",< 500 nM
10,"O=C(Nc1cc(Cl)c(C(F)(F)F)cn1)N1CCc2cc(=O)[nH]cc2C1 [Compound 5, N-(4-chloro-5-(trifluoromethyl)pyridin-2-yl)-6-oxo-3,4,6,7-tetrahydro-2,7-naphthyridine-2(1H)-carboxamide]",500 to 5000 nM
11,"N#Cc1ccc2c(c1)CCN(C(=O)Nc1cc(C(F)(F)F)on1)C2 [Compound 6, 6-Cyano-N-(5-(trifluoromethyl)isoxazol-3-yl)-3,4-dihydroisoquinoline-2(1H)-carboxamide]",500 to 5000 nM
12,"O=C(Nc1nnc(C(F)(F)F)s1)N1CCc2cc(=O)[nH]cc2C1 [Compound 7, 6-Oxo-N-(5-(trifluoromethyl)-1,3,4-thiadiazol-2-yl)-3,4,6,7-tetrahydro-2,7-naphthyridine-2(1H)-carboxamide]",500 to 5000 nM
13,"O=C(Nc1cc(Cl)c(Cl)cn1)N1CCc2cc(=O)[nH]cc2C1 [Compound 8, N-(4,5-Dichloropyridin-2-yl)-6-oxo-3,4,6,7-tetrahydro-2,7-naphthyridine-2(1H)-carboxamide]",500 to 5000 nM
14,"O=C(Nc1nnc(C(F)(F)F)s1)N1CCc2cc(F)ccc2C1 [Compound 9, 6-Fluoro-N-(5-(trifluoromethyl)-1,3,4-thiadiazol-2-yl)-3,4-dihydroisoquinoline-2(1H)-carboxamide]",< 500 nM
15,"O=C(Nc1nnc(C(F)(F)F)s1)N1CCc2cc(Cl)ccc2C1 [Compound 10, 6-Chloro-N-(5-(trifluoromethyl)-1,3,4-thiadiazol-2-yl)-3,4-dihydroisoquinoline-2(1H)-carboxamide]",< 500 nM
16,"O=C(Nc1cc(Cl)c(C(F)(F)F)cc1F)N1CCc2cc(F)ccc2C1 [Compound 11, N-(5-Chloro-2-fluoro-4-(trifluoromethyl)phenyl)-6-fluoro-3,4-dihydroisoquinoline-2(1H)-carboxamide]",< 500 nM
17,"O=C(Nc1cc(Cl)c(Cl)cn1)N1CCc2cc(F)ncc2C1 [Compound 12, N-(4,5-Dichloropyridin-2-yl)-6-fluoro-3,4-dihydro-2,7-naphthyridine-2(1H)-carboxamide]",500 to 5000 nM
18,"O=C(Nc1cc(Cl)c(C(F)(F)F)cn1)N1CCc2cc(F)ncc2C1 [Compound 13, N-(4-Chloro-5-(trifluoromethyl)pyridin-2-yl)-6-fluoro-3,4-dihydro-2,7-naphthyridine-2(1H)-carboxamide]",500 to 5000 nM
19,"O=C1NN=C2CN(C(=O)Nc3cc(Cl)c(C(F)(F)F)cc3F)CC=C2N1 [Compound 14, N-(5-Chloro-2-fluoro-4-(trifluoromethyl)phenyl)-3-oxo-2,4,6,8-tetrahydropyrido[4,3-e][1,2,4]triazine-7(3H)-carboxamide]",500 to 5000 nM
20,"O=C(Nc1cc(Cl)c(C(F)(F)F)cc1F)N1CCc2cc(=O)[nH]nc2C1 [Compound 15, N-(5-Chloro-2-fluoro-4-(trifluoromethyl)phenyl)-3-oxo-2,5,6,8-tetrahydropyrido[3,4-c]pyridazine-7(3H)-carboxamide]",< 500 nM
21,"O=C(Nc1cc(Cl)c(C(F)(F)F)cn1)N1CCc2c(ccnc2F)C1 [Compound 16, N-(4-chloro-5-(trifluoromethyl)pyridin-2-yl)-5-fluoro-3,4-dihydro-2,6-naphthyridine-2(1H)-carboxamide]",< 500 nM
22,"O=C(Nc1cc(Cl)c(C(F)(F)F)cc1F)N1CCc2c(ccnc2F)C1 [Compound 17, N-(5-Chloro-2-fluoro-4-(trifluoromethyl)phenyl)-5-fluoro-3,4-dihydro-2,6-naphthyridine-2(1H)-carboxamide]",< 500 nM
23,"CS(=O)(=O)c1nnc2c(n1)CCN(C(=O)Nc1cc(Cl)c(C(F)(F)F)cc1F)C2 [Compound 18, N-(5-chloro-2-fluoro-4-(trifluoromethyl)phenyl)-3-(methylsulfonyl)-5,8-dihydropyrido[4,3-e][1,2,4]triazine-7(6H)-carboxamide]",500 to 5000 nM
24,"O=C(Nc1cc(Cl)c(Cl)cn1)N1CCc2c(ccnc2F)C1 [Compound 19, N-(4,5-Dichloropyridin-2-yl)-5-fluoro-3,4-dihydro-2,6-naphthyridine-2(1H)-carboxamide]",< 500 nM
25,"CC1CN(C(=O)Nc2cc(Cl)c(C(F)(F)F)cc2F)Cc2cnc(F)cc21 (centres unmarked) [Compound 20, N-(5-Chloro-2-fluoro-4-(trifluoromethyl)phenyl)-6-fluoro-4-methyl-3,4-dihydro-2,7-naphthyridine-2(1H)-carboxamide]",500 to 5000 nM
26,"C=C1CN(C(=O)Nc2cc(Cl)c(C(F)(F)F)cc2F)Cc2cnc(F)cc21 [Compound 22, N-(5-Chloro-2-fluoro-4-(trifluoromethyl)phenyl)-6-fluoro-4-methylene-3,4-dihydro-2,7-naphthyridine-2(1H)-carboxamide]",500 to 5000 nM
27,"CC1CN(C(=O)Nc2cc(Cl)c(C(F)(F)F)cc2F)Cc2ccnc(F)c21 (centres unmarked) [Compound 23, N-(5-Chloro-2-fluoro-4-(trifluoromethyl)phenyl)-5-fluoro-4-methyl-3,4-dihydro-2,6-naphthyridine-2(1H)-carboxamide]",< 500 nM
28,"C=C1CN(C(=O)Nc2cc(Cl)c(C(F)(F)F)cc2F)Cc2ccnc(F)c21 [Compound 24, N-(5-Chloro-2-fluoro-4-(trifluoromethyl)phenyl)-5-fluoro-4-methylene-3,4-dihydro-2,6-naphthyridine-2(1H)-carboxamide]",< 500 nM
29,"O=C(Nc1cc(Cl)c(C(F)(F)F)cc1F)N1Cc2ccnc(F)c2C(F)C1 (centres unmarked) [Compound 27, N-(5-chloro-2-fluoro-4-(trifluoromethyl)phenyl)-4,5-difluoro-3,4-dihydro-2,6-naphthyridine-2(1H)-carboxamide]",< 500 nM
